{"source": "patent US20140243422A1", "about": "“METHODS OF TREATING BEHAVIORAL AND PSYCHIATRIC DISORDERS” (ELAN PHARMACEUTICALS, INC., priority 2011, published 2014)", "key": {"[1]": {"test_system": "patients with mild to moderate AD (MMSE 16-26)", "assay": "Phase 2 placebo-controlled trial: cognitive and functional outcome measures (NTB, ADCS-ADL, CDR-SB)", "format": "in vivo, human", "experimental": "(§1) In a Phase 2, parallel arm, dose-ranging, placebo-controlled, double-blind, multicenter trial in patients with mild to moderate AD (MMSE 16-26), scyllo-inositol was administered to study subjects in immediate release tablets twice daily at the dosage level set for each study arm or identical-appearing placebo tablets were administered in the control arm. […] The study included neuropsychological assessments using the NPI-12 item scale, as well as assessments of scyllo-Inositol (SI) and myo-inositol (MI) brain levels using magnetic resonance spectroscopy (MRS).\nStudy drug was administered as placebo or one of 3 doses of scyllo-inositol (SI): 250 mg, 1000 mg and 2000 mg, each dose given twice daily (bid) as capsules of either 250 mg or 1000 mg.\n(§2) The present study was a dose ranging study in Mild and Moderate AD patients (defined as having MMSE scores of 16-26 inclusive), and included 3 doses of scyllo-insoitol given bid (250 mg, 1000 mg, and 2000 mg) and placebo. The study was of 78 weeks duration and enrolled a total of 353 patients, and 351 received study drug (safety population). Due to safety findings in the 2 highest dose groups, these 2 groups were discontinued and the study's final efficacy analysis was based only on the 250 mg and placebo groups. The primary efficacy analysis was based on the overall population (mild and moderate), but the statistical analysis plan (SAP) Included subgroup analyses by disease severity, and defined Mild as patients with MMSE 23-26 and Moderate 16-22 inclusive. In the overall study population, total randomized to all 4 dose groups=353, total that received study drug=351 (safety population, at any dose). For placebo and 250 mg group, the overall m-ITT (modified intent-to-treat)=166, overall PPS (per protocol set)=96.\nValues for all clinical outcome measures were calculated so that a positive change from baseline indicates improvement, and a positive difference from placebo indicates drug benefit.\nA sensitivity analysis was performed post-hoc using a wider definition of the Mild sub-group (MMSE: 22-26 inclusive) with a larger sample size. In this sensitivity analysis, the positive effect of the 250 mg on the NTB score approached a significant trend (p<0.1) in the m-ITT analysis (Table 3), and was significant (p<0.05) in the PP analysis (data on file). […] On this basis, all further analyses shown here are defined in the Mild and Moderate subgroups as patients having MMSE scores between 22-26 (Mild) and 16-21 (Moderate) inclusive."}, "[2]": {"test_system": "myo-inositol brain levels", "assay": "Phase 2 trial: brain myo-inositol and scyllo-inositol levels by magnetic resonance spectroscopy (MRS)", "format": "in vivo, human", "experimental": "as §1\nThe maximal myo-inositol reduction measured at the 3 studied doses was 44%, 66% and 60% at the 250 mg, 1000 mg, and 2000 mg bid doses, respectively."}, "CSF Abeta42": {"test_system": "CSF Abeta42", "assay": "Phase 2 trial: cerebrospinal fluid Abeta42", "format": "in vivo, human", "conditions": "250 mg bid; statistically significant", "experimental": "The effect of the 250 mg dose on cerebrospinal fluid (CSF) Abeta42 reduction (˜27% compared to baseline) was statistically significant, but the higher doses seemed to provide further Abeta42 reduction. Despite the dose-dependent effects of scyllo-inositol on CSF Abeta42, the 2 high doses consistently produced smaller effects on clinical endpoints than the 250 mg dose. This observed dissociation between the dose-dependent effects on CSF Abeta42 and the clinically measured NPI outcomes supports the concept that scyllo Inositol clinical effects are mediated by two distinct mechanisms. These mechanisms include: 1. reduction of brain amyloid load and resulting synaptic toxicity which has previously been disclosed affect memory and reasoning/problem solving, but not NPS, and 2. down-regulation of brain myo-inositol levels with secondary salutary effects on neuronal function (Machado-Vieira et al. 2009). The only other MRS studies measuring in vivo brain levels of myo-inositol and scyllo-inositol after scyllo-inositol administration were in transgenic mice. (Choi, et al. 2010, Neuropharmacology, 59(4-5): 353-357). […] The details of the Phase 2 data are described below."}, "[3]": {"test_system": "patients with mild to moderate AD (MMSE 16-26)", "assay": "Phase 2 trial: safety and tolerability", "format": "in vivo, human", "conditions": "250 mg bid, elderly study population", "experimental": "as §2\nIn summary, scyllo-inositol exposures ≧1000 mg bid provide less cognitive and functional benefit than the 250 mg bid dose. These high exposures may be associated with an increase in neuropsychiatric adverse events."}, "amyloid β-peptide": {"test_system": "amyloid β-peptide", "conditions": "given orally, transgenic mouse model of AD; cited from earlier work"}, "myo-inositol": {"test_system": "myo-inositol", "conditions": "transgenic mice, Choi et al. 2010; cited from earlier work"}, "[4]": {"conditions": "250 mg bid, Mild MMSE 22-26 (post-hoc), m-ITT"}, "[5]": {"conditions": "250 mg bid, Mild MMSE 22-26, m-ITT"}, "[6]": {"conditions": "250 mg bid, Mild MMSE 23-26, PPS"}, "[7]": {"conditions": "250 mg bid, Mild MMSE 23-26, m-ITT"}, "[8]": {"conditions": "250 mg bid, Mild MMSE 23-26, m-ITT, week 78, positive = drug benefit"}}, "data": [{"smiles": "O[C@H]1[C@H](O)[C@@H](O)[C@H](O)[C@@H](O)[C@@H]1O", "note": "[scyllo-inositol]", "values": [{"measurement": "ADCS-DL drug-placebo difference", "setting": "[1]; [4]", "value": 3.15}, {"measurement": "CDR-SB drug-placebo difference", "setting": "[1]; [4]", "value": 0.97}, {"measurement": "NTB drug-placebo difference", "setting": "[1]; [4]", "value": 0.2}, {"measurement": "ADCS-DL % effect compared to placebo", "setting": "[1]; [5]", "value": 42, "unit": "%"}, {"measurement": "CDR-SB % effect compared to placebo", "setting": "[1]; [5]", "value": 42, "unit": "%"}, {"measurement": "NTB % effect compared to placebo", "setting": "[1]; [5]", "value": 75, "unit": "%"}, {"measurement": "ADCS-ADL % effect compared to placebo", "setting": "[1]; [6]", "value": 31, "unit": "%"}, {"measurement": "ADCS-ADL drug-placebo difference", "setting": "[1]; [6]", "value": 2.25}, {"measurement": "CDR-SB % effect compared to placebo", "setting": "[1]; [6]", "value": 44, "unit": "%"}, {"measurement": "CDR-SB drug-placebo difference", "setting": "[1]; [6]", "value": 0.95}, {"measurement": "NTB % effect compared to placebo", "setting": "[1]; [6]", "value": 100, "unit": "%"}, {"measurement": "NTB drug-placebo difference", "setting": "[1]; [6]", "value": 0.4}, {"measurement": "ADCS-ADL % effect compared to placebo", "setting": "[1]; [7]", "value": 35, "unit": "%"}, {"measurement": "CDR-SB % effect compared to placebo", "setting": "[1]; [7]", "value": 40, "unit": "%"}, {"measurement": "NTB % effect compared to placebo", "setting": "[1]; [7]", "value": 72, "unit": "%"}, {"measurement": "ADCS-ADL drug-placebo difference", "setting": "[1]; [8]", "value": 2.26}, {"measurement": "CDR-SB drug-placebo difference", "setting": "[1]; [8]", "value": 0.87}, {"measurement": "NTB drug-placebo difference", "setting": "[1]; [8]", "value": 0.2}, {"measurement": "magnitude of the 250 mg effect on the NTB", "setting": "[1]; 250 mg bid, overall mild and moderate population, per protocol subjects, week 78, not statistically significant", "value": 0.15}, {"measurement": "NTB benefit compared to placebo", "setting": "[1]; 250 mg bid, overall population, per protocol subjects, week 78", "value": 40, "unit": "%"}, {"measurement": "benefit on co-primary cognitive and functional endpoints (NTB and ADCS-ADL)", "setting": "[1]; overall Mild and Moderate population", "value": "no statistically significant benefit"}, {"measurement": "maximal myo-inositol reduction in brain (MRS)", "setting": "[2]; 250 mg bid, maximal at about 48 to about 78 weeks", "value": 44, "unit": "%"}, {"measurement": "maximal myo-inositol reduction in brain (MRS)", "setting": "[2]; 1000 mg bid", "value": 66, "unit": "%"}, {"measurement": "maximal decrease of myo-inositol levels", "setting": "[2]; 1000 mg bid and 2000 mg bid", "value": "60-66%"}, {"measurement": "maximal myo-inositol reduction in brain (MRS)", "setting": "[2]; 2000 mg bid", "value": 60, "unit": "%"}, {"measurement": "brain scyllo-inositol level by MRS", "setting": "[2]; 250, 1000, 2000 mg bid", "value": "dose-dependent increase"}, {"measurement": "CSF Abeta42 reduction compared to baseline", "setting": "CSF Abeta42", "value": 27, "unit": "%"}, {"measurement": "safety and CNS tolerability", "setting": "[3]", "value": "acceptable safety and good CNS tolerability"}, {"measurement": "aggregation of amyloid β-peptide in the brain", "setting": "amyloid β-peptide", "value": "inhibits aggregation of amyloid β-peptide in the brain"}, {"measurement": "myo-inositol reductions in frontal cortex and hippocampus (MRS)", "setting": "myo-inositol", "value": "rather modest non significant myo-inositol reductions"}]}]}
